Results from patent US20070037752A1, “Novel alanyl-amino peptidase inhibitors for functionally influencing different cells and treating immunological, inflammatory, neuronal, and other diseases” (priority 2003, published 2007).
Read-outs that look alike come from different tables or passages of the source.

Biological target: alanyl aminopeptidases (APN) (Homo sapiens, UniProt P15144)
Assay: Inhibition of alanyl aminopeptidase enzymatic activity, fluorogenic substrate (Ala)2-rhodamine 110
Assay type: biochemical
Experimental: The inhibition characteristics measured are referred to as IC-50 values or ID50 values (the latter marked with “*”) for said enzyme. The enzymatic activity was determined by means of the fluorogenic substrate/product (Ala)2-rhodamine 110.

[1] = Table 3, unstarred values, read-out: IC50APN
[2] = Table 4, unstarred values, read-out: IC50APN
[3] = Table 3, starred values = ID50, read-out: ID50 APN (values marked with *)

Sequence of alanyl aminopeptidases (APN) (P15144 whole entry, species assumed): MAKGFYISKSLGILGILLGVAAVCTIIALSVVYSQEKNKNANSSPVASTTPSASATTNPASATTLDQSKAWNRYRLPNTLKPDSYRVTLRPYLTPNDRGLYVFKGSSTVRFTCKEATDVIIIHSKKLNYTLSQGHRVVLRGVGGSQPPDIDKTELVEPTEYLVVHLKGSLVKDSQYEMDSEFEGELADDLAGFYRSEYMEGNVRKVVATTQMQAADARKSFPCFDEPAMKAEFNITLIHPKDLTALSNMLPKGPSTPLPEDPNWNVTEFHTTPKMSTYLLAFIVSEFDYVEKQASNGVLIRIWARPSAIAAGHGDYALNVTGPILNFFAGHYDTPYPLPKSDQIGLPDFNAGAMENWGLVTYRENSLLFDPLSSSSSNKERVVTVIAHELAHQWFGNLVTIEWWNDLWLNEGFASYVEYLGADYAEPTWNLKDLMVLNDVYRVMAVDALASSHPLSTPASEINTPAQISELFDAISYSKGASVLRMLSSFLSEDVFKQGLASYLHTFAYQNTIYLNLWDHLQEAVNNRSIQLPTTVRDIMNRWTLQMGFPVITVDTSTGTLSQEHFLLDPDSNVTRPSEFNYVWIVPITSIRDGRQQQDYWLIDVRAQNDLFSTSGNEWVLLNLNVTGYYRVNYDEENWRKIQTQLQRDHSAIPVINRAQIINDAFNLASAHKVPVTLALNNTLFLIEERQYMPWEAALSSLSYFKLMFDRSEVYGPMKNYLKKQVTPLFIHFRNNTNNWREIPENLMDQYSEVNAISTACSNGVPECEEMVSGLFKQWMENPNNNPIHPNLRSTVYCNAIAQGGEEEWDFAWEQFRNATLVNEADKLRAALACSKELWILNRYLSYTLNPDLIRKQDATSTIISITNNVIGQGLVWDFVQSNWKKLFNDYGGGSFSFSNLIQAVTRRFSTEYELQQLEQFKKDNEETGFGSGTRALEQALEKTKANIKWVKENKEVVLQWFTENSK

Q: With `CC(/C=N/NC(=O)c1ccco1)=C\c1ccco1` [A3.168] as the compound, how does the IC50 [1] read?
A: The IC50 was 27.5 µM.

Q: With `CC(=O)Nc1ccc(C(=O)N/N=C/c2ccco2)cc1` [A4.123] as the compound, how does the IC50 [2] read?
A: Its IC50 is 38.4 µM.

Q: For `CCc1ccc(OCC(=O)N/N=C\c2ccco2)c([N+](=O)[O-])c1` [A3.153], which IC50 [1] is on record?
A: Its IC50 is 25.1 µM.

Q: How did the IC50 (Table 11, read-out: IC50APN) turn out when `O=c1[nH]cc([N+](=O)[O-])cc1C(F)(F)F` [A11.021] was run?
A: The IC50 was 29.9 µM.

Q: `O=C(N/N=C/c1cc([N+](=O)[O-])ccc1O)c1ccc(O)cc1O` [A4.054] was tested. Which IC50 [2] did it give?
A: Its IC50 is 20.2 µM.

Q: Which IC50 [3] does the source give for `Cc1cccc(C(=O)Nc2ccc(C(=O)N/N=C/c3ccco3)cc2)c1` [A3.293] here?
A: The IC50 was 67.1 µM.

Q: Which IC50 [2] does the source give for `O=C(Cc1ccc(Br)c2ccccc12)N/N=C/c1ccc([N+](=O)[O-])c(O)c1` [A4.009] here?
A: Its IC50 is 7 µM.

Q: `CCOC(=O)c1cc(-c2ccc(/C=C3\C(=O)N(CCCO)C(=O)C(C#N)=C3C)o2)ccc1Cl` [A13.020] was tested. Which IC50 (Table 13, read-out: IC50APN) did it give?
A: The IC50 was 41 µM.

Q: How did the IC50 [2] turn out when `O=C(N/N=C/c1ccco1)c1ccc(O)cc1O` [A4.122] was run?
A: Its IC50 is 38.3 µM.

Q: With `O=C(Nc1ccccc1C(=O)N/N=C/c1ccco1)c1ccccc1Cl` [A3.210] as the compound, how does the IC50 [1] read?
A: The IC50 was 34.7 µM.

Q: With `O=[N+]([O-])c1ncn(CN2CCOCC2)n1` [A3.222] as the compound, how does the IC50 [1] read?
A: Its IC50 is 36.6 µM.

Q: `Cc1ccc(C(=O)N/C(=C\c2ccco2)C(=O)N2CCCN(C)CC2)cc1C` [A3.194] was tested. Which IC50 [1] did it give?
A: Its IC50 is 32.1 µM.

Q: For `Cc1cccc(C)c1NC1C(c2ccccc2NC(=O)Nc2ccc(OC(F)(F)F)cc2)N=C2C(C(=O)NCC(C)C)=CC=CN21` (stereo not drawn) [A3.190], which IC50 [1] is on record?
A: Its IC50 is 31.1 µM.

Q: `CC(N/N=C1/SC(CC(=O)O)C(=O)N1c1ccccc1)c1ccco1` (stereo not drawn) [A4.092] was tested. Which IC50 [2] did it give?
A: Its IC50 is 28.6 µM.

Q: For `COCc1c(C(=O)N/N=C/c2ccc(C)o2)nnn1-c1nonc1N` [A3.053], which IC50 [1] is on record?
A: The IC50 was 12.5 µM.

Q: `CC1CCCN(S(=O)(=O)c2ccc(NC(=O)/C=C/c3ccco3)cc2)C1` (stereo not drawn) [A6.002] was tested. Which IC50 (Table 6, read-out: IC50APN) did it give?
A: The IC50 was 8.4 µM.

Q: With `COc1ccc(C[C@@H](N)C(=O)N[C@@H]2[C@H](O)[C@H](n3cnc4c(N(C)C)ncnc43)O[C@@H]2CO)cc1` [A3.114] as the compound, how does the IC50 [1] read?
A: The IC50 was 20.9 µM.

Q: How did the IC50 [1] turn out when `COC(=O)c1ccccc1-c1ccc(/C=C2\C(=O)N(C)C(=O)C(C#N)=C2C)o1` [A3.172] was run?
A: Its IC50 is 28.1 µM.

Q: How did the IC50 [2] turn out when `CCOc1cc(/C=N/NC(=O)CNC(=O)c2cccc(Cl)c2)ccc1OC(=O)c1cccs1` [A4.020] was run?
A: The IC50 was 12.2 µM.

Q: With `O=C(OCCN1CCCCC1)C1c2ccccc2Oc2ccccc21` [A9.117] as the compound, how does the IC50 (Table 9, starred values = ID50, read-out: ID50 APN (values marked with *)) read?
A: Its IC50 is 94.8 µM.

Q: With `CCc1ccc(-c2cc(C(=O)N/N=C/c3c(C)nn(-c4ccccc4)c3C)[nH]n2)cc1` [A3.061] as the compound, how does the IC50 [1] read?
A: Its IC50 is 13.6 µM.

Q: For `COC(=O)c1ccc(-c2ccc(/C=C3\C(=O)N(CCCO)C(=O)C(C#N)=C3C)o2)cc1` [A12.005], which IC50 (Table 12, read-out: IC50APN) is on record?
A: Its IC50 is 5 µM.

Q: How did the IC50 [1] turn out when `O=C(Nc1ccccc1C(=O)N/N=C/c1ccco1)c1ccc(Cl)cc1Cl` [A3.092] was run?
A: Its IC50 is 18.7 µM.

Q: Which IC50 [3] does the source give for `CC(=O)Nc1cccc(C(=O)N/N=C/c2ccc(C)o2)c1` [A3.285] here?
A: The IC50 was 63.1 µM.

Q: `C/C(=N/O)c1ccc2c(c1)OCCOCCOc1cc(/C(C)=N\O)ccc1OCCOCCO2` [A12.017] was tested. Which IC50 (Table 12, read-out: IC50APN) did it give?
A: Its IC50 is 8.6 µM.

Q: `O=C(N/N=C/C=C\c1ccco1)c1ccoc1` [A3.186] was tested. Which IC50 [1] did it give?
A: Its IC50 is 30.1 µM.

Q: Which IC50 [1] does the source give for `O=C(N/N=C/c1ccco1)c1cccc(I)c1` [A3.212] here?
A: Its IC50 is 34.7 µM.

Q: With `O=C(N/N=C/c1ccco1)c1ccccc1[N+](=O)[O-]` [A4.172] as the compound, how does the IC50 [2] read?
A: Its IC50 is 91.2 µM.

Q: `Cc1ccc(/C=N/NC(=O)COc2ccccc2C)o1` [A3.128] was tested. Which IC50 [1] did it give?
A: Its IC50 is 22.2 µM.

Q: For `Cc1ccccc1NC(=O)C1C(c2cccs2)C(C#N)=C(SCC(=O)Nc2ccc(Br)cc2)NC1(C)O` (stereo not drawn) [A9.087], which IC50 (Table 9, unstarred values, read-out: IC50APN) is on record?
A: The IC50 was 33.9 µM.

Q: With `O=C(N/N=C/c1ccco1)c1cccc(NC(=O)c2ccccc2Cl)c1` [A4.057] as the compound, how does the IC50 [2] read?
A: The IC50 was 20.6 µM.

Q: How did the IC50 [3] turn out when `Cc1ccc(Cn2c(SCCC(=O)O)nc3c2c(=O)[nH]c(=O)n3C)cc1` [A3.267] was run?
A: The IC50 was 53.2 µM.

Q: For `COC(=O)C1=C(N)N2C(=O)CSC2=C(C(=O)OC)C1` [A14.001], which IC50APN (Table 14) is on record?
A: Its IC50APN is ““positively very highly active”, means beyond measurement- scale””.

Q: How did the IC50 [1] turn out when `O=[N+]([O-])c1ccc(C2OCN3COCC23)cc1` (stereo not drawn) [A3.287] was run?
A: The IC50 was 64.5 µM.

Q: With `O=C(O)c1ccc2c(c1)C(=O)/C(=C\c1ccco1)C2=O` [A3.144] as the compound, how does the IC50 [1] read?
A: The IC50 was 23.7 µM.

Q: For `COc1ccc(/C=C(/NC(=O)c2ccccc2)C(=O)N/N=C\C=C\c2ccc(C)o2)cc1OC` [A4.041], which IC50 [2] is on record?
A: The IC50 was 16.7 µM.

Q: How did the IC50 (Table 12, read-out: IC50APN) turn out when `CCCOC(=O)c1cc(-c2ccc(/C=C3\C(=O)N(CCCO)C(=O)C(C#N)=C3C)o2)ccc1Cl` [A12.022] was run?
A: The IC50 was 23.8 µM.

Q: With `COc1ccc(C2C(C(=O)c3ccccc3)C(c3ccccc3)C(C(=O)NCc3ccc(F)cc3)N2C(=O)NC2CCCCC2)cc1` (stereo not drawn) [A8.041] as the compound, how does the IC50 (Table 8, starred values = ID50, read-out: ID50 APN (values marked with *)) read?
A: The IC50 was 231 µM.

Q: `O=C(CC1(O)CCCCC1)N/N=C/c1ccccc1[N+](=O)[O-]` [A11.023] was tested. Which IC50 (Table 11, read-out: IC50APN) did it give?
A: The IC50 was 31.1 µM.

Q: How did the IC50 [1] turn out when `O=C(N/N=C/c1ccco1)c1ccc(O)cc1O` [A3.229] was run?
A: The IC50 was 38.3 µM.

Q: Which IC50 [2] does the source give for `Cc1ccc(/C=N/NC(=O)c2cccc(Cl)c2)o1` [A4.015] here?
A: Its IC50 is 10.5 µM.

Q: Which IC50 (Table 12, read-out: IC50APN) does the source give for `O=C(CS(=O)(=O)c1ccc(Cl)cc1)NO` [A12.021] here?
A: Its IC50 is 11.5 µM.

Q: For `COC(=O)c1cccc(-c2ccc(/C=C3\C(=O)N(CCO)C(=O)C(C#N)=C3C)o2)c1` [A12.007], which IC50 (Table 12, read-out: IC50APN) is on record?
A: The IC50 was 6.3 µM.

Q: For `O=C(Nc1ccccc1F)c1ccc([N+](=O)[O-])o1` [A11.034], which IC50 (Table 11, read-out: IC50APN) is on record?
A: Its IC50 is 62.4 µM.

Q: How did the IC50 (Table 6, read-out: IC50APN) turn out when `CC1CCN(S(=O)(=O)c2ccc3c(c2)C(Cl)(Cl)C(=O)N3)CC1` [A6.015] was run?
A: The IC50 was 37.2 µM.
